The text below walks through data of ChEMBL document CHEMBL2321790, “1,4,2-Benzo/pyridodithiazine 1,1-dioxides structurally related to the ATP-sensitive potassium channel openers 1,2,4-Benzo/pyridothiadiazine 1,1-dioxides exert a myorelaxant activity linked to a distinct mechanism of action” (J Med Chem, 2013).

As usually defined, the EC50 is the concentration that produces a half-maximal response. What is called pKa is the negative logarithm of the acid dissociation constant. A lower pKa goes with a stronger acid or weaker base.

Structures are written as SMILES.

Data set [1] can be described thus: Activation of ATP-sensitive potassium channel opening in albino rat aorta rings assessed as relaxation of KCl-induced contraction of aorta rings. It is filed as tissue-based.
For data set [2], the species on record is Rattus norvegicus. Kind of data set: Activation of ATP-sensitive potassium channel opening in albino rat pancreatic islets assessed as inhibition of glucose-induced insulin release measured as residual insulin release at 10 uM after 90 mins by radioimmunoassay.
Data set [3] concerns Aorta. Kind of data set: Myorelaxant activity in albino rat aorta rings assessed as relaxation of KCl-induced contraction of aorta rings. It is filed as functional, tissue-based.
The test system of data set [4] is Aorta. Kind of data set: Myorelaxant activity in albino rat aorta rings assessed as relaxation of 30 mM KCl-induced contraction of aorta rings. It is filed as functional, tissue-based.
Data set [5] has as its system Aorta. The data set is described as follows: Myorelaxant activity in albino rat aorta rings assessed as relaxation of 80 mM KCl-induced contraction of aorta rings. It is filed as functional, tissue-based.
Data set [6] deals with Aorta. Kind of data set: Myorelaxant activity in albino rat aorta rings assessed as relaxation of KCl-induced contraction of aorta rings in presence of 1 uM KATP channel blocker glibenclamide. It is filed as functional, tissue-based.
Data set [7] deals with Aorta. The data set is described as follows: Myorelaxant activity in albino rat aorta rings assessed as relaxation of KCl-induced contraction of aorta rings in presence of 10 uM KATP channel blocker glibenclamide. Format: functional, tissue-based.
Data set [8] in a line: Dissociation constant, pKa of the compound in water at 25 degC. It is filed as physicochemical.

For the compound `CCC(C)NC1=NS(=O)(=O)c2cc([N+](=O)[O-])ccc2S1` (configuration not stated), the EC50 in data set [1] amounted to 59.9 µM. Moreover, in data set [2], the Activity turned out to be 110%.

`COc1ccc(CCN(C)CCCC(C#N)(c2ccc(OC)c(OC)c2)C(C)C)cc1OC` (configuration not stated) [VERAPAMIL]: the Activity entry in data set [3] is “Dose-dependent effect”. Moreover, the EC50 came out at 0.031 µM in data set [4], 0.052 µM in data set [5], 0.038 µM in data set [6] and 0.35 µM in data set [7].

In the case of `CC(C)NC1=NS(=O)(=O)c2cccc(Cl)c2S1`, the EC50 in data set [1] was greater than 30 µM. In data set [2], the Activity came out at 82.4%.

For `CCC(C)NC1=NS(=O)(=O)c2cc(C(F)(F)F)ccc2S1` (configuration not stated), the 50% effective concentration (EC50) in data set [1] was 38.8 µM. Besides, in data set [2], the Activity was 110%.

Consider `CC(SC1=NS(=O)(=O)c2ccc(Cl)cc2N1)c1ccccc1` (configuration not stated), for which the EC50 in data set [1] was 5.7 µM. The Activity in data set [2] is 76.3%.

Regarding `CC(SC1=NS(=O)(=O)c2cc(F)ccc2N1)c1ccccc1` (configuration not stated) [listing 1 of 2 here], in data set [2], the Activity was 95.5%.

In the case of `CC(SC1=NS(=O)(=O)c2cc(F)ccc2N1)c1ccccc1` (racemic), the EC50 stood at 13.2 µM in data set [4], 27.5 µM in data set [5], 33.3 µM in data set [6] and 36.2 µM in data set [7] (read-out: EC50).

Turning to `CC(C)CNC1=NS(=O)(=O)c2cc([N+](=O)[O-])ccc2S1`, in data set [1], the EC50 stood at 69.1 µM. In addition, the Activity in data set [2] is 110%.

On to `CC(NC1=NS(=O)(=O)c2cc(S(C)(=O)=O)ccc2S1)c1ccccc1` (configuration not stated), for which the concentration for a half-maximal effect (EC50) in data set [1] is greater than 30 µM. For the same compound, the Activity in data set [2] is 83.4%.

In the case of `CC(C)NC1=NS(=O)(=O)c2cc(S(C)(=O)=O)ccc2S1`, the EC50 in data set [1] was greater than 200 µM. In addition, the Activity in data set [2] came to 76.3%.

As for `CC(SC1=NS(=O)(=O)c2cc(F)ccc2N1)c1ccccc1` (configuration not stated) [listing 2 of 2 here], the EC50 in data set [1] amounted to 15 µM.

With `CC(C)NC1=NS(=O)(=O)c2cc(C(=O)O)ccc2S1`, in data set [1], the concentration for a half-maximal effect (EC50) is greater than 200 µM. The Activity in data set [2] came out at 68.5%.

For the compound `CC(C)NC1=NS(=O)(=O)c2cc(C(F)(F)F)ccc2S1`, the EC50 in data set [1] was determined as 53.7 µM. Besides, the Activity in data set [2] came out at 108%.

As for `CCNC1=NS(=O)(=O)c2cc([N+](=O)[O-])ccc2S1`, the EC50 in data set [1] is greater than 30 µM. Also, the Activity in data set [2] stood at 100%.

On to `O=[N+]([O-])c1ccc2c(c1)S(=O)(=O)N=C(NCC1CC1)S2`, for which the EC50 in data set [1] was determined as 61.1 µM. Besides, in data set [2], the Activity worked out at 90.2%.

On to `CC(NC1=NS(=O)(=O)c2cc([N+](=O)[O-])ccc2S1)c1ccccc1` (configuration not stated), for which the EC50 in data set [1] came to 15.9 µM. In addition, in data set [2], the Activity was 91.5%.

In the case of `O=[N+]([O-])c1ccc2c(c1)S(=O)(=O)N=C(NCc1ccccc1)S2`, the EC50 in data set [1] was greater than 30 µM. In addition, in data set [2], the Activity is 77.7%.

With `C[C@@H](NC1=NS(=O)(=O)c2cc(C(F)(F)F)ccc2S1)c1ccccc1`, in data set [1], the EC50 was greater than 30 µM.

As for `O=S1(=O)N=C(Nc2ccccc2)Sc2ccc(C(F)(F)F)cc21`, in data set [1], the concentration for a half-maximal effect (EC50) came to 13.7 µM. Besides, the Activity in data set [2] was found to be 67.8%.

For the compound `C[C@H](NC1=NS(=O)(=O)c2cc(C(F)(F)F)ccc2S1)c1ccccc1`, the EC50 in data set [1] came to 11.3 µM.

Turning to `CC(C)NC1=NS(=O)(=O)c2cnccc2S1`, the EC50 in data set [1] is 190 µM. Also, the Activity in data set [2] came out at 90.6%.

For the compound `CC(C)NC1=NS(=O)(=O)c2cc(C#N)ccc2S1`, the EC50 in data set [1] was 152 µM. Moreover, the Activity in data set [2] was determined as 86.2%.

Consider `CC(NC1=NS(=O)(=O)c2cc(C(F)(F)F)ccc2S1)c1ccccc1` (stereo in doubt; 6t), for which the Activity in data set [2] worked out at 97%.

Consider `CC(SC1=NS(=O)(=O)c2cc(Br)ccc2N1)c1ccccc1` (configuration not stated), for which the EC50 in data set [1] stood at 11.9 µM. Moreover, the Activity in data set [2] was determined as 91.7%.

On to `O=[N+]([O-])c1ccc2c(c1)S(=O)(=O)N=C(Nc1ccccc1)S2`, for which the EC50 in data set [1] was greater than 200 µM. In addition, the Activity in data set [2] is 89.5%.

On to `CS(=O)(=O)c1ccc2c(c1)S(=O)(=O)N=C(Nc1ccccc1)S2`, for which the EC50 in data set [1] was greater than 30 µM. The Activity in data set [2] worked out at 92.4%.

In the case of `CC1=Nc2ccc(Cl)cc2S(=O)(=O)N1` [DIAZOXIDE], the EC50 in data set [1] was 26.2 µM; in data set [4], 23.8 µM; in data set [5] it was greater than 300 µM; in data set [6], 154 µM; in data set [7] (read-out: EC50) it was 280 µM. For the same compound, the Activity in data set [2] was determined as 73.9%.

For the compound `CC(C)NC1=NS(=O)(=O)c2cc(Cl)ccc2S1`, the 50% effective concentration (EC50) in data set [1] is greater than 100 µM. Further, in data set [8], the pKa is 9.76. The Activity in data set [2] was 92.2%.

For `CC(C)NC1=NS(=O)(=O)c2ccc(Cl)cc2S1`, in data set [1], the EC50 was greater than 30 µM. In addition, the Activity in data set [2] worked out at 78.9%.

As for `CC(C)NC1=NS(=O)(=O)c2cc(Cl)ccc2N1`, the EC50 in data set [1] turned out to be 31.8 µM. Besides, the Activity in data set [2] came to 4.8%.

As for `CC(NC1=NS(=O)(=O)c2cc(C(F)(F)F)ccc2S1)c1ccccc1` (racemic) [listing 1 of 2 here], the EC50 was determined as 11.6 µM in data set [1]; 16.2 µM in data set [4]; 14.9 µM in data set [5]; 17.3 µM in data set [6]; 15.5 µM in data set [7] (read-out: EC50).

For `CC(C)NC1=NS(=O)(=O)c2cc([N+](=O)[O-])ccc2S1`, the EC50 in data set [1] came to 176 µM. Also, the Activity in data set [2] was 97.7%.

Take `CC(NC1=NS(=O)(=O)c2cc(C(F)(F)F)ccc2S1)c1ccccc1` (racemic) [listing 2 of 2 here]: the Activity in data set [2] came out at 97%.

In the case of `CC(C)NC1=NS(=O)(=O)c2c[n+]([O-])ccc2S1`, the EC50 in data set [1] is greater than 200 µM. Also, the Activity in data set [2] amounted to 76.7%.

Regarding `O=[N+]([O-])c1ccc2c(c1)S(=O)(=O)N=C(NC1CCCC1)S2`, the EC50 in data set [1] is 42.6 µM. Moreover, in data set [2], the Activity turned out to be 100%.

In the case of `CC(SC1=NS(=O)(=O)c2cc(I)ccc2N1)c1ccccc1` (configuration not stated), the EC50 in data set [1] came to 5.4 µM. Further, the Activity in data set [2] came out at 81.4%.

Turning to `O=S1(=O)N=C(NC2CCCC2)Sc2ccc(C(F)(F)F)cc21`, the EC50 in data set [1] turned out to be 48.7 µM. Also, the Activity in data set [2] was 89.5%.

For the compound `O=[N+]([O-])c1ccc2c(c1)S(=O)(=O)N=C(NC1CC1)S2`, the EC50 in data set [1] was greater than 200 µM. The Activity in data set [2] was determined as 88.2%.

Regarding `CC(SC1=NS(=O)(=O)c2cc(Cl)ccc2N1)c1ccccc1` (configuration not stated), the EC50 in data set [1] came to 5.4 µM. In addition, the Activity in data set [2] amounted to 71.1%.

In the case of `CC(SC1=NS(=O)(=O)c2cccc(Cl)c2N1)c1ccccc1` (configuration not stated), the EC50 in data set [1] is greater than 30 µM. Moreover, the Activity in data set [2] was found to be 79.2%.
